# US12539292B2, “BRM targeting compounds and associated methods of use” (Arvinas Operations, Inc., priority 2018, dated 2026)
# Like-named read-outs stand apart in the source and are kept apart here.
# Target: T1, BRM (Homo sapiens, UniProt P51531)
# T1 construct: In-Cell Western Screen of BRM Degradation in SW1573 Cells; endogenous in cells; host or cells: SW1573
# Experiment: In-cell Western screen of BRM degradation in SW1573 cells (Dmax and DC50)
# Type: cell-based
# Summary of the method: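 After adhering overnight, cells received compound for 18-20 hours. They were then washed in cold DPBS, fixed with 4% PFA for 20 min and permeabilized for 30 min. Blocking and fluorescent secondary staining followed before imaging.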
# [1] = SW1573, % degraded, when tested at the top concentration of between 0.3 and 10 μM, read-out: BRM Dmax (%)
# [2] = target protein degradation, read-out: BRM DC50
# T1 sequence (P51531 whole entry): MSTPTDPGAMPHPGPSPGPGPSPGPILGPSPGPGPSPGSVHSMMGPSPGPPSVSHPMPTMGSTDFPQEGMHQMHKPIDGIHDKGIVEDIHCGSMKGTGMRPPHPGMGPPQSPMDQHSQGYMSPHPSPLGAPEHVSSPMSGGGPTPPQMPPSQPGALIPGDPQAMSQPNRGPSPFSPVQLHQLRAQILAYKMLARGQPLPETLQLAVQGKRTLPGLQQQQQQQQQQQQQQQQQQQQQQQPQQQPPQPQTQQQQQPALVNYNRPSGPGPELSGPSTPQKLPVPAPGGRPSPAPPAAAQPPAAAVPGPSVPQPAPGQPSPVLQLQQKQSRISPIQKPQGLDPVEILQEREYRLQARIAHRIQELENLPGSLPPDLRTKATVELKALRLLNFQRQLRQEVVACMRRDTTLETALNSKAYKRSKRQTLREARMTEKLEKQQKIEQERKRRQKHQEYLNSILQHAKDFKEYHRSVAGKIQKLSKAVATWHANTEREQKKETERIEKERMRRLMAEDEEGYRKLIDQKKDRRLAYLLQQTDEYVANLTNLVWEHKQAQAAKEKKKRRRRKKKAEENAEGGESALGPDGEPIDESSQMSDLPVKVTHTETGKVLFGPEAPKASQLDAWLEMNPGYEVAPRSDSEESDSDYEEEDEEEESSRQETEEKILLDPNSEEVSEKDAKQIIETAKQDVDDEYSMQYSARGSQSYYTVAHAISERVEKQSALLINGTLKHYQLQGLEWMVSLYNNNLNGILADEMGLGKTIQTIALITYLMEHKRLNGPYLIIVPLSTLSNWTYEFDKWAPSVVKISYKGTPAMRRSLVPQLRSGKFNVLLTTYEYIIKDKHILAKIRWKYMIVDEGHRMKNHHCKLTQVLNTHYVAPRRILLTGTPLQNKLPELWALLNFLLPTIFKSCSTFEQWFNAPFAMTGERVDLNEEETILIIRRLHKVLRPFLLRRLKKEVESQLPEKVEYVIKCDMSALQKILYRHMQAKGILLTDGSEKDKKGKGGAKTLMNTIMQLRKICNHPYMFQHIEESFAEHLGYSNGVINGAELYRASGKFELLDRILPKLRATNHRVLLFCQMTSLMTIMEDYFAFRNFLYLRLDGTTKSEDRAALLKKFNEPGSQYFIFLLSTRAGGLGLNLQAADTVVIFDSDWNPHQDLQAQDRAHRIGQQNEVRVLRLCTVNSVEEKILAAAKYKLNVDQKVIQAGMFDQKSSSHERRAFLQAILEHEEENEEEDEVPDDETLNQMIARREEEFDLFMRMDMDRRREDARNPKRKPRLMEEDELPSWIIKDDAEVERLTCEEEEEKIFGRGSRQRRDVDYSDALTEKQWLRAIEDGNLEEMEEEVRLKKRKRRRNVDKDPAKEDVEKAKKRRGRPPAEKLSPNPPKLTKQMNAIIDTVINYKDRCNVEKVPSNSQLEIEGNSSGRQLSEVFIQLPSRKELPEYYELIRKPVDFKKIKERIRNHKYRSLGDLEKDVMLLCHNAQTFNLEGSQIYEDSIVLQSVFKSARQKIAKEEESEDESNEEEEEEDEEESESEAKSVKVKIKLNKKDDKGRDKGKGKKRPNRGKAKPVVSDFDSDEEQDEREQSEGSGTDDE
smiles,measurement,setting,value
"Cc1ncoc1-c1ccc([C@H](C)NC(=O)[C@@H]2C[C@@H](O)CN2C(=O)[C@@H](c2cc(OCCN3CCC(O[C@H]4C[C@H](Oc5cc(N6C7CCC6CN(c6cc(-c8ccccc8O)nnc6N)C7)ccn5)C4)CC3)no2)C(C)C)cn1 [compound 230, (2S,4R)-1-((2R)-2-(3-(2-(4-((1r,3R)-3-((4-(3-(3-amino-6-(2-hydroxyphenyl)pyridazin-4-yl)-3,8-diazabicyclo[3.2.1]octan-8-yl)pyridin-2-yl)oxy)cyclobutoxy)piperidin-1-yl)ethoxy)isoxazol-5-yl)-3-methylbutanoyl)-4-hydroxy-N-((S)-1-(6-(4-methyloxazol-5-yl)pyridin-3-yl)ethyl)pyrrolidine-2-carboxamide]",DC50,"BRM degradation, SW1573 cells, read-out: DC50",< 2.5 nM
same,Dmax,"BRM degradation, SW1573 cells, tested at the top concentration of between 0.3 and 10 μM, read-out: Dmax (%) (% degraded)",> 75%
"COc1nc(-c2scnc2C)c(F)cc1[C@@H](C)NC(=O)[C@@H]1C[C@@H](O)CN1C(=O)[C@@H](c1cc(OCCN2CCC(O[C@H]3C[C@H](Oc4cc(N5C6CCC5CN(c5cc(-c7ccccc7O)nnc5N)C6)ccn4)C3)CC2)no1)C(C)C [compound 564, (2S,4R)-1-((2R)-2-(3-(2-(4-((1r,3R)-3-((4-(3-(3-amino-6-(2-hydroxyphenyl)pyridazin-4-yl)-3,8-diazabicyclo[3.2.1]octan-8-yl)pyridin-2-yl)oxy)cyclobutoxy)piperidin-1-yl)ethoxy)isoxazol-5-yl)-3-methylbutanoyl)-N-((R)-1-(5-fluoro-2-methoxy-6-(4-methylthiazol-5-yl)pyridin-3-yl)ethyl)-4-hydroxypyrrolidine-2-carboxamide]",DC50,"BRM degradation, SW1573 cells, Table 2D, read-out: *DC50",> 30 nM
"Cc1ncsc1-c1ccc([C@H](C)NC(=O)[C@@H]2C[C@@H](O)CN2C(=O)[C@@H](c2cc(OCC#Cc3ncc(O[C@H]4C[C@H](Oc5cc(N6C7CCC6CN(c6cc(-c8ccccc8O)nnc6N)C7)ccn5)C4)cn3)no2)C(C)C)cn1 [compound 400, (2S,4R)-1-((2R)-2-(3-((3-(5-((1r,3R)-3-((4-(3-(3-amino-6-(2-hydroxyphenyl)pyridazin-4-yl)-3,8-diazabicyclo[3.2.1]octan-8-yl)pyridin-2-yl)oxy)cyclobutoxy)pyrimidin-2-yl)prop-2-yn-1-yl)oxy)isoxazol-5-yl)-3-methylbutanoyl)-4-hydroxy-N-((S)-1-(6-(4-methylthiazol-5-yl)pyridin-3-yl)ethyl)pyrrolidine-2-carboxamide]",Dmax,[1],> 75%
same,DC50,[2],< 2.5 nM
"Cc1ncsc1-c1ccc([C@H](C)NC(=O)[C@@H]2C[C@@H](O)CN2C(=O)[C@@H](c2cc(OCCN[C@H]3CC[C@@H](O[C@H]4C[C@@H](Oc5cc(N6C7CCC6CN(c6cc(-c8ccccc8O)nnc6N)C7)ccn5)C4)CC3)no2)C(C)C)cn1 [compound 388, (2S,4R)-1-((2R)-2-(3-(2-(((1S,4S)-4-((1r,3S)-3-((4-(3-(3-amino-6-(2-hydroxyphenyl)pyridazin-4-yl)-3,8-diazabicyclo[3.2.1]octan-8-yl)pyridin-2-yl)oxy)cyclobutoxy)cyclohexyl)amino)ethoxy)isoxazol-5-yl)-3-methylbutanoyl)-4-hydroxy-N-((S)-1-(6-(4-methylthiazol-5-yl)pyridin-3-yl)ethyl)pyrrolidine-2-carboxamide]",Dmax,[1],> 75%
same,DC50,[2],2.5 to 10 nM
"Cc1ncsc1-c1ccc([C@H](C)NC(=O)[C@@H]2C[C@@H](O)CN2C(=O)[C@@H](c2cc(N3CCC(CC4CCN(C[C@H]5C[C@H](Oc6cc(N7C8CCC7CN(c7cc(-c9ccccc9O)nnc7N)C8)ccn6)C5)CC4)CC3)no2)C(C)C)cc1 [compound 473, (2S,4R)-1-((2R)-2-(3-(4-((1-(((1r,3r)-3-((4-(3-(3-amino-6-(2-hydroxyphenyl)pyridazin-4-yl)-3,8-diazabicyclo[3.2.1]octan-8-yl)pyridin-2-yl)oxy)cyclobutyl)methyl)piperidin-4-yl)methyl)piperidin-1-yl)isoxazol-5-yl)-3-methylbutanoyl)-4-hydroxy-N-((S)-1-(4-(4-methylthiazol-5-yl)phenyl)ethyl)pyrrolidine-2-carboxamide]",Dmax,[1],> 75%
same,DC50,[2],< 2.5 nM
